Data on five compounds can be found in patent publication US20100048714A1, “Methods and Compositions Related to Inhibition of Ceramide Synthesis” (University of Utah Research Foundation, priority 2006, published 2010).

Test [1] has as its system Sprague dawley rats. The experiment in a line: Hyperinsulinemic euglycemic clamps of dexamethasone treated rats. Type of test: in vivo, rat. The note with it: plasma, 60 minute steady state; Dexamethasone-treated (Saline or Myriocin); mean ± standard error, n=4.
In test [2] the test system is Sprague dawley rats. Described as above. It counts as in vivo, rat. The following applies: plasma, Dexamethasone-treated (Saline or Myriocin), mean ± standard error, n=4. The protocol:
(§1) (A) Sprague-Dawley rats were treated with myriocin (300 μg/Kg, IP, solid bars) or saline (open bars) for two weeks prior to giving administering dexamethasone (40 μg/Kg, IP) or vehicle (5% ethanol) every 12 hours for 36 hours. Animals were euthanized by CO2 inhalation, livers were removed, and ceramide levels were assessed as described in SOM-Methods. Shown are mean ceramide levels+/−S.E.M, n=6 per group. The asterisk denotes that the sample was statistically different from vehicle-treated controls, p<0.05, student's t-test. (B) Livers were obtained as in A, above, and protein and mRNA were extracted as described in SOM-Methods. Levels of transcripts (solid bars) encoding serine palimitoyl transferase isoforms 1 and 2 (SPT1 and SPT2), dihydroceramide synthases (DCS) TL1, UOG, and TRH3, glucosylceramide synthase (GCS), and acid ceramidase (AC) transcripts were obtained by reverse-transcriptase polymerase chain reaction, normalized to β-actin. SPT2 protein levels (white bars) were detected by immunoblotting with an antibody from Cayman Chemicals (Ann Arbor, Mich.) and quantified on a Kodak Image Station 2000R (Rochester, N.Y.). Data represent the fold-change in transcript or protein in dexamethasone-treated animals relative to vehicle controls. […] (C and D) Rats were challenged with glucose (1 g/kg) given intraperitoneally (IP) following treatment with dexamethasone (squares), ethanol carrier (triangles), myriocin (open shapes), or saline (solid shapes) as in A, above. Tail vein blood (3 μl) was sampled for glucose (C)(using the Glucometer Elite from Bayer Corp., Tarrytown, N.Y.) or insulin (D) (using an Elisa kit from Linco Diagnostics, Springfield, Mo.). […] (E-G) Hyperinsulinemic euglycemic clamps were performed on animals (n=4 per group) treated as in A, above, as described in SOM-Methods. Data from animals receiving myriocin are depicted in solid bars. (E) The glucose infusion rate required to maintain normal glycemia during insulin infusion ([…]) was calculated as the average infusion rate during the 60 minute steady state. (F) Hepatic glucose output was estimated by the disappearance of [^14C] glucose from a bolus dose given during the steady state minus the glucose infusion rate. (G) Disappearance of a bolus dose of [^3H] 2-deoxyglucose from the bloodstream was used to estimate the rate of whole body glucose uptake.
To definitively evaluate effects on insulin sensitivity, as well as to distinguish whether the treatment protocols differentially affected glucose uptake in skeletal muscle or hepatic output by the liver, hyperinsulinemic-euglycemic clamps with D-[U-^14C] glucose and 2-deoxy-D-[2,6-^3H] glucose tracers were performed.
Clamps were performed in conscious unrestrained animals using swivels and tethers (Instech, Plymouth Meeting, Pa.) to allow uninterrupted movement of the animal without disruption of infusion lines. Hyperinsulinemia was initiated by intravenous infusion of insulin (10 mU/kg/min at a flow rate of 4 μL/min). Blood was sampled from arterial lines in 7 minute intervals and analyzed with a Beckman Glucose analyzer II (Beckman Coulter, Fullerton, Calif.). Euglycemia was maintained by variable infusion of 20% dextrose. Steady state was achieved approximately 90 minutes after initiating hyperinsulinemia and maintained for 30 minutes. Glucose infusion rates were calculated as the average glucose infusion rate during the 30 minute steady state. Additional blood samples were taken before initiating hyperinsulinemia and at the end of the clamp for analysis of insulin and free fatty acids.

For test [3], the system named is Sprague-Dawley rats. The experiment in a line: Glucose tolerance test (glucose 1 g/kg IP) in dexamethasone-treated rats. Type of test: in vivo, rat. The note with it: dexamethasone vs vehicle. The protocol: as §1
Tail vein blood (3 μl) was sampled for glucose determination (Hitachi 911 clinical chemistry analyzer, Roche, Indianapolis, Ind. or Glucometer Elite, Bayer Corp., Tarrytown, N.Y.)-30 minutes, immediately before and 15, 30, 45, 60, 90, and 120 min after glucose administration. Additionally, serum was collected and analyzed for insulin by Elisa (Linco Diagnostics, Springfield, Mo.).

The test system of test [4] is Sprague-Dawley rats. The experiment in a line: Lipid infusion with hyperinsulinemic euglycemic clamps. It counts as in vivo, rat. The note with it: for Glucose, During Clamp / FFA, Before Clamp / FFA, Before Infusion / FFA, During Clamp / Glucose, Before Clamp / Glucose, Before Infusion / Insulin, Before Clamp / Insulin, Before Infusion / Insulin, During Clamp: plasma, mean ± standard error, n=4; for Glucose, During Clamp: 30 minute steady state. From the text:
The more common mechanism by which insulin resistance likely develops in the obese is through the accumulation of fats in tissues not-suited for lipid storage. Indeed, intramyocellular lipid levels inversely correlate with insulin sensitivity, and are one of the best predictors of insulin resistance in humans. To mimic this condition in rats, a 20% lard oil-heparin infusate was delivered into the bloodstream of Sprague-Dawley rats via jugular catheters. […] To assess muscle insulin sensitivity during the infusion, hyperinsulinemic-euglycemic clamps were performed on conscious, unrestrained rats during the terminal 90 minutes of the protocol. Lard oil infusion decreased insulin-stimulated glucose disposal to 47% of glycerol treated control subjects (FIG. 3C). […] Differences in the glucose infusion rats could not be accounted for by the slight differences in the glucose concentration that was achieved during the clamp nor to differences in steady-state insulin concentrations (Table 3).
Male Sprague-Dawley rats (˜250 grams) were randomly divided into nine different groups. Glycerol, 20% lard oil, or 20% soy oil emulsions were prepared as previously described (Stein 1997) and infused at a constant rate of 5 mL/Kg/hour. To activate lipoprotein lipase, heparin (6 units/hour) was added to the triglyceride emulsions. Lipids were infused in animals treated with control injections (normal saline), myriocin (100 μg/Kg IP) or cycloserine (50 mg/Kg IP). Drugs were given 12 hours prior to lipid infusion and equivalent doses were given intravenously at the time of infusion. […] Following lipid infusion animals were deeply anesthetized with sodium pentobarbital and soleus muscles were rapidly dissected out and rapidly frozen in liquid nitrogen.
Clamps were performed in conscious unrestrained animals using swivels and tethers (Instech, Plymouth Meeting, Pa.) to allow uninterrupted movement of the animal without disruption of infusion lines. Hyperinsulinemia was initiated by intravenous infusion of insulin (10 mU/kg/min at a flow rate of 4 μL/min).

A further test concerns soleus muscles. The experiment in a line: Isolated soleus muscle strips incubated with free fatty acids. The following applies: cycloserine 1 mM or myriocin 10 μM.
A further test addresses T1, DES 1 (Homo sapiens, UniProt O15121).
T1 sequence (O15121 1-323): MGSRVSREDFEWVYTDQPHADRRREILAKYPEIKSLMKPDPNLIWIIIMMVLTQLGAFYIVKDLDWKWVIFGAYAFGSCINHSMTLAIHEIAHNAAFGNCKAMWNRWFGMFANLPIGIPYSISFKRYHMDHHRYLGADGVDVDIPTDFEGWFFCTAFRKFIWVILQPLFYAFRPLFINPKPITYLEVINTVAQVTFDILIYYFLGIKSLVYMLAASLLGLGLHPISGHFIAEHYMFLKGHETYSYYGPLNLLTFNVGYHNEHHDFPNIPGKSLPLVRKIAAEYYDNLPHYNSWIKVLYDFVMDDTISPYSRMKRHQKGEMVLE
The note with it: Zheng et al. 2006; Szkudelski et al. 2006; cited from earlier work.

Test [5] deals with genes which control ceramide synthesis or degradation. The experiment in a line: RT-PCR of genes which control ceramide synthesis or degradation after TNFα. It counts as cell-based. The protocol: Using RT-PCR, mRNA levels of serine palmitoyltransferase subunits (LCB1 and LCB2), acid ceramidase (AC), glucosylceramide synthase (GCS), ceramide kinase (CerK), and ceramide synthase isoforms 1-6 (Cers/Lass 1-6) were evaluated.
The possibility that TNFαα-stimulation of lipolysis can account for the increase in ceramide by stimulating the formation of intracellular palmitoyl-CoA, which could serve as a precursor for ceramide biosynthesis, was considered. […] Instead, it appears that TNFα regulates the expression or activity of enzymes that control intracellular ceramide levels. Using RT-PCR, changes in mRNA levels of genes which control ceramide synthesis or degradation were evaluated. […] The analysis was extended to consider several ceramide synthase (CerS/LASS) isoforms, which selectively catalyze the incorporation of distinct fatty acids into the sphinganine backbone. TNFα-induced an impressive 8 and 5-fold increase in CerS1 and CerS4, respectively. These enzymes preferentially catalyze the production of ceramide species containing the stearate fatty acid.

The mark [6] stands for this setting: Intralipid infusion, with or without myriocin or cycloserine.
Setting [7] is: lard oil infusion, with or without myriocin or cycloserine.

In the case of `C[C@@H]1C[C@H]2[C@@H]3CCC4=CC(=O)C=C[C@]4(C)[C@@]3(F)[C@@H](O)C[C@]2(C)[C@@]1(O)C(=O)CO` [Dexamethasone], the “Glucose, During Clamp” value in the test on Sprague dawley rats [1] came to 131.1 ± 5.1 mg/dL. In the test with Sprague dawley rats [2] (steady state), the “Insulin, During Clamp” value came out at 6.7 ± 1.3 ng/mL. Besides, the FFA in the test on Sprague dawley rats [2] (Before Clamp by layout) stood at 211 ± 38 µM. Besides, in the test on Sprague dawley rats [2], the “Glucose, Before Clamp” value was determined as 139.0 ± 3.1 mg/dL and the “Insulin, Before Clamp” value came to 4.36 ± 2.34 ng/mL. In addition, in the test with Sprague-Dawley rats [3], the “increase in fasting blood glucose” value came to 13% and the “increase in fasting insulin concentrations” value came to 2.8 fold.

As for `N[C@@H]1CON=C1O` [L-cycloserine], in the test with Sprague-Dawley rats [4] (setting [6]), the “insulin-stimulated glucose disposal / insulin resistance” value was “Neither myriocin nor cycloserine prevented” and the “muscle DAG levels” value was “Neither myriocin nor cycloserine prevented”. Further, in the test on Sprague-Dawley rats [4] (setting [7]), the “ceramide in skeletal muscle” value was “blocked ceramide synthesis” and the “diacylglycerol (DAG) in muscle” value is “Neither myriocin nor cycloserine reduced DAG”. Besides, the “glucose utilization in clamp” value in the test with Sprague-Dawley rats [4] (lard-infused animals) is given as “restored glucose utilization”. Besides, in the test with Sprague-Dawley rats [4] (Lipid: Glycerol), the “Glucose, During Clamp” value is 111.0 ± 3.0 mg/dL; the “FFA, Before Clamp” value is listed as 0.489 ± 0.10 mM; the “FFA, Before Infusion” value was found to be 0.562 ± 0.10 mM; the “FFA, During Clamp” value is listed as 0.501 ± 0.11 mM. In the test on Sprague-Dawley rats [4] (Lipid: Glycerol), the “Glucose, Before Clamp” value came out at 113.0 ± 3.2 mg/dL; the “Glucose, Before Infusion” value is on record as 104.0 ± 13.1 mg/dL; the “Insulin, Before Clamp” value is reported as 9.19 ± 0.20 ng/mL; the “Insulin, Before Infusion” value was 0.659 ± 0.11 ng/mL. For the same compound, the “Insulin, During Clamp” value in the test on Sprague-Dawley rats [4] (Lipid: Glycerol) was found to be 12.08 ± 0.03 ng/mL. In the test with Sprague-Dawley rats [4] (Lipid: Lard oil (PBS or drug)), the “Glucose, During Clamp” value was found to be 106.6 ± 2.6 mg/dL; the “FFA, Before Clamp” value was determined as 1.53 ± 0.19 mM; the “FFA, Before Infusion” value worked out at 0.672 ± 0.14 mM; the “FFA, During Clamp” value was found to be 2.12 ± 0.89 mM. Further, in the test on Sprague-Dawley rats [4] (Lipid: Lard oil (PBS or drug)), the “Glucose, Before Clamp” value came to 101.6 ± 7.1 mg/dL; the “Glucose, Before Infusion” value was determined as 100.6 ± 6.4 mg/dL; the “Insulin, Before Clamp” value was 2.18 ± 0.76 ng/mL; the “Insulin, Before Infusion” value is listed as 0.793 ± 0.15 ng/mL. Besides, the “Insulin, During Clamp” value in the test with Sprague-Dawley rats [4] (Lipid: Lard oil (PBS or drug)) is reported as 16.27 ± 2.69 ng/mL. Also, in the test with Sprague-Dawley rats [4] (Lipid: Soy oil (PBS or drug)), the “Glucose, During Clamp” value stood at 106.2 ± 0.44 mg/dL; the “FFA, Before Clamp” value turned out to be 1.51 ± 0.23 mM; the “FFA, Before Infusion” value came out at 1.02 ± 0.32 mM; the “FFA, During Clamp” value is on record as 2.10 ± 0.77 mM. In addition, in the test with Sprague-Dawley rats [4] (Lipid: Soy oil (PBS or drug)), the “Glucose, Before Clamp” value is 124.0 ± 10.8 mg/dL; the “Glucose, Before Infusion” value is 102.3 ± 7.1 mg/dL; the “Insulin, Before Clamp” value was 3.13 ± 1.0 ng/mL; the “Insulin, Before Infusion” value was 1.12 ± 0.17 ng/mL. For the same compound, in the test on Sprague-Dawley rats [4] (Lipid: Soy oil (PBS or drug)), the “Insulin, During Clamp” value was 14.38 ± 0.67 ng/mL. For the same compound, in the test with soleus muscles (1 mM linoleate), the “linoleate effects on 2-DOG uptake” value is recorded as “did not alter linoleate effects” and the “linoleate effects on DAG accumulation” value is listed as “did not alter linoleate effects”. Moreover, in the test with soleus muscles (1 mM palmitate), the “DAG in palmitate-treated muscles” value is reported as “without affecting DAG”, the “palmitate effect on insulin-stimulated 2-deoxyglucose uptake” value is listed as “completely negated the antagonistic effects of palmitate” and the palmitate-induced ceramide accumulation entry is listed as “prevented palmitate-induced ceramide accumulation”.

For `CC1=C(/C=C/C(C)=C/C=C/C(C)=C/C(=O)Nc2ccc(O)cc2)C(C)(C)CCC1` [fenretinide], the “inhibition of DES 1” value at DES 1 is given as “inhibit DES 1”.

For `Oc1ccc(C=Cc2cc(O)cc(O)c2)cc1` [resveratrol], the “inhibition of DES 1” value at DES 1 is on record as “inhibit DES 1”.

For TNFα, in test [5], the “expression of glucosylceramide synthase (mRNA)” value is “markedly reduced expression”; the “expression of serine palmitoyltransferase subunits LCB1 and LCB2 (mRNA)” value is given as “increased expression”; the “increase in CerS1 (mRNA)” value was found to be 8 fold; the “increase in CerS4 (mRNA)” value was 5 fold.
